The record followed here is patent US20100029702A1, “Method For Identification of Compound Having Anti-Anxiety Effect” (priority 2006, published 2010).

Experiment [1] concerns the target T1, 7tmHR (Homo sapiens, UniProt O60241).
T1 construct: a vector expressing each full-length cDNA clone was constructed; expressed in transfected cells; host or cells: CHO-K1, 7tmHR/pcDNA3.1
The experiment is described as follows: Changes in intracellular Ca2+ concentration in 7tmHR stably-expressing strain. Type of experiment: cell-based. The procedure:
(§1) The 7tmHR stably-expressing strain and the hk01941 stably-expressing strain were prepared by transfecting the 7tmHR-expressing vector (7tmHR/pcDNA3.1) and the hk01941-expressing vector (hk01941/pcDNA3.1), respectively, into a CHO-K1 cell strain. Specifically, the expression vector was mixed with Lipofectamine 2000, (may be referred to as LF2000, Invitrogen) (4 μg DNA/250 μL of DMEM/F12 medium+10 μL of LF2000/250 μL DMEM/F12 medium) and added the CHO-K1 strain (2 mL medium/well) cultured in a 6-well plate to be transfected thereinto. On the following day, cells were recovered and seeded in a 96-well plate at cell density of 1 cell/well, cultured in a selective medium containing G418 (400 μg/mL) (DMEM/F 12 medium containing 10% FCS), and screened for expression cell strains. […]
(§2) Changes in the intracellular calcium (Ca^2+) concentration induced by CCK-8S were measured by a method similar to the method described in Example 5 using the 7tmHR stably-expressing strain and the hk01941 stably-expressing strain prepared in Example 7. […]
(§3) Cells were seeded in a 96-well plate (a plate with a black wall and a transparent bottom) at a cell count of 3×10^4/100 μL of medium/well and cultured overnight at 37° C. in a 5% CO2 incubator. […] After reaction, changes over time in the fluorescence intensity in each well after addition of CCK-8S were measured using the FLEX station (Molecular Device). […]

Experiment [2] deals with T2, hk01941 (Homo sapiens, UniProt O60241, DEL308-417).
T2 construct: a vector expressing each full-length cDNA clone was constructed; expressed in transfected cells; host or cells: CHO-K1, hk01941/pcDNA3.1
T2 sequence (O60241 with tags, fused parts or gaps DEL308-417): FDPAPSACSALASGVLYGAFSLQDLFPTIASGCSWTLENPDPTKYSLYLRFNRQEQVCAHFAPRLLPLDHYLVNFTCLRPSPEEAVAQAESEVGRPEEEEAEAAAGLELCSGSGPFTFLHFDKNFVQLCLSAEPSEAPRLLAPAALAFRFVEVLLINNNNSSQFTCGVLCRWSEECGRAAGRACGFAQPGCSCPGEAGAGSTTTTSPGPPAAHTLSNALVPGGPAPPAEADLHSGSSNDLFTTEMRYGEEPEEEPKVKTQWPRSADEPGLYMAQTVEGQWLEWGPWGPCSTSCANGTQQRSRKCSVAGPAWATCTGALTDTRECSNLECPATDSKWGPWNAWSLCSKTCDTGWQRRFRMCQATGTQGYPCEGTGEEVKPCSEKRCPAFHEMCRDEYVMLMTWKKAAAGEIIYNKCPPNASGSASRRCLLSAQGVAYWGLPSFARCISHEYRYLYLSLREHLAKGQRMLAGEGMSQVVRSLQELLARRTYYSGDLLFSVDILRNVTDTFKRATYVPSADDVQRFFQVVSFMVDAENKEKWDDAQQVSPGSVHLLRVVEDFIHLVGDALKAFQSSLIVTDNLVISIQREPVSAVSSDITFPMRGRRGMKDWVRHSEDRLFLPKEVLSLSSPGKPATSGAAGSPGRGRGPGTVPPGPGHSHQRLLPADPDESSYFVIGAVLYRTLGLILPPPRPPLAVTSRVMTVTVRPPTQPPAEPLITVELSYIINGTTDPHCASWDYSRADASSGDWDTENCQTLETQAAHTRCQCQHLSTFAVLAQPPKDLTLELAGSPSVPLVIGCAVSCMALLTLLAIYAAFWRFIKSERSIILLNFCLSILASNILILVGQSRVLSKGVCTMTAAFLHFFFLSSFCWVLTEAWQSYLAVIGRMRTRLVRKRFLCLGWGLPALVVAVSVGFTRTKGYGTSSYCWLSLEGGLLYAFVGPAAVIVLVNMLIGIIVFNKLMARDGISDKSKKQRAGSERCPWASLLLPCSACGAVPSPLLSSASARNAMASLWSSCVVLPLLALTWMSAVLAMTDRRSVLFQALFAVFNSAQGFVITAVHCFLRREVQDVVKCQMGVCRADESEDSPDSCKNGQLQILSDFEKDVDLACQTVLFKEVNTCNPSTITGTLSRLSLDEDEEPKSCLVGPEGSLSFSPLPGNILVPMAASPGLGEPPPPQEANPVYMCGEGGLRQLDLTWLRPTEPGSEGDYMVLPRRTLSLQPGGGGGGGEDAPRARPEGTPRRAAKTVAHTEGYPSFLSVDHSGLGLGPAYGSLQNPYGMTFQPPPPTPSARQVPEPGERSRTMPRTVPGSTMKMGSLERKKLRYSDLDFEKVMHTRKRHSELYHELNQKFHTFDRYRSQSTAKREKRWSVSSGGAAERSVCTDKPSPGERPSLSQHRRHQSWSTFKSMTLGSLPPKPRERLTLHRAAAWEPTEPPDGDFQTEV
The experiment can be described thus: Changes in intracellular Ca2+ concentration in hk01941 stably-expressing strain. The format is cell-based. The procedure: as §1, §2, §3

T1 sequence (O60241 13-1585): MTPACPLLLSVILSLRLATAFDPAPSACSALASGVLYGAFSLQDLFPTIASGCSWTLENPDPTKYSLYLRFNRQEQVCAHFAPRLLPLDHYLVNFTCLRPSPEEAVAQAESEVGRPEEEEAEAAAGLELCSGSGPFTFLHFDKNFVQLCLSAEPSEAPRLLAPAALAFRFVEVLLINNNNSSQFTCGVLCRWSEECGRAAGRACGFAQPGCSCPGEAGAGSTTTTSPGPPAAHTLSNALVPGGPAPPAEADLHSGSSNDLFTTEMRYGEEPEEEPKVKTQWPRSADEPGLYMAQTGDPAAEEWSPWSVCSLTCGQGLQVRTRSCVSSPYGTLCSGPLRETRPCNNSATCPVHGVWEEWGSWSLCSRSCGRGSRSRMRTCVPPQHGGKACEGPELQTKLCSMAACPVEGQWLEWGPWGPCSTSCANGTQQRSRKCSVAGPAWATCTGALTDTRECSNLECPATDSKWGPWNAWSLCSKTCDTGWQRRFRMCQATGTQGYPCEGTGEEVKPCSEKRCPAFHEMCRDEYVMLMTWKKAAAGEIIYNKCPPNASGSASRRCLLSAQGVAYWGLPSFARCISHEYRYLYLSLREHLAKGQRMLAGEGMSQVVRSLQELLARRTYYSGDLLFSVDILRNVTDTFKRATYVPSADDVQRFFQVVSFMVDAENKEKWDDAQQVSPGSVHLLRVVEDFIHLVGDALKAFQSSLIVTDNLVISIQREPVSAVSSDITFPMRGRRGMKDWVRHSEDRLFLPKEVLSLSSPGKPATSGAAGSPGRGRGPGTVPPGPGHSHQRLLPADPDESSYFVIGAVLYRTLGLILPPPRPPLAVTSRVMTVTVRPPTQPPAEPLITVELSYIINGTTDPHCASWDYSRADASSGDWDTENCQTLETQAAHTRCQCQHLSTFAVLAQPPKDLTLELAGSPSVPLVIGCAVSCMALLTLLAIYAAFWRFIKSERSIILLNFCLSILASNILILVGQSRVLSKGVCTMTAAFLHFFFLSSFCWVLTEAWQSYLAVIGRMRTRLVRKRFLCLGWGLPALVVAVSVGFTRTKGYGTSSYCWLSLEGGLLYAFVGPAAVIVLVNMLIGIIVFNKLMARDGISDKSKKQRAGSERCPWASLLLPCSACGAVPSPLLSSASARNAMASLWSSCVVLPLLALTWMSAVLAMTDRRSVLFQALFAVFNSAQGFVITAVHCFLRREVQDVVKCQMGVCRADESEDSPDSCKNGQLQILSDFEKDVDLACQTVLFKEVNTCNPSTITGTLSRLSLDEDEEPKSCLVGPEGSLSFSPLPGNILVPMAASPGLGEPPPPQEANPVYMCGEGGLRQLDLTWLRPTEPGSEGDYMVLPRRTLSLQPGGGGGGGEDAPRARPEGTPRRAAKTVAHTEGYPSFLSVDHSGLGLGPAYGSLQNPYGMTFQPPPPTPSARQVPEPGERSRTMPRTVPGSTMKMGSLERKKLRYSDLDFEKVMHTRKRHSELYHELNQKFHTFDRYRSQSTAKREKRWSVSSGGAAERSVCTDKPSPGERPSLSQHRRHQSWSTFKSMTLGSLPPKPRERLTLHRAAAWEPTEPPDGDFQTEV

As to `CNc1ccc2oc(C[C@H]3O[C@@]4(CC[C@H]3C)O[C@H]([C@H](C)C(=O)c3ccc[nH]3)[C@H](C)C[C@H]4C)nc2c1C(=O)O` [A23187], the “Change in intracellular Ca2+ concentration (fluorescence intensity)” value is reported as “increased” in experiment [1] (7tmHR/CHO#6, A23187 20 μM, positive control) and “increased” in experiment [2] (hk01941/CHO#13, A23187 20 μM, positive control).
On to “cholecystokinin octapeptide sulfated form [CCK-8S]”, for which the “Change in intracellular Ca2+ concentration after addition of CCK-8S” value in experiment [1] (7tmHR stably-expressing strain, CCK-8S 10 pM to 1 μM, figure at 1 nM) is on record as “increase”; in experiment [2] (hk01941 stably-expressing strain, CCK-8S 10 pM to 1 μM, figure at 1 nM), “increase”.
